Data: PubChem BioAssay AID1963852 (Molecular Pharmacology Branch, DTP, NCI, 2024)

Test system: 282377-053-R-J1-PDC complex spheroid viability
Test: Anticancer human tumor 282377-053-R-J1-PDC patient-derived colon adenocarcinoma cell line growth inhibition [POLQ]
Details: for IC50: curve of first compound; for viability, T/C: stronger effect = lower value
Outline: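 Complex spheroid viability model combining PDC tumour cells with endothelial (HUVEC) and MSC stromal cells. Novobiocin, ART-558 or RP6685 were tested singly and in combination with standard and investigational anticancer drugs. Each was titrated in half-log steps from near clinical Cmax, or from 10 microM where Cmax was unknown.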

[1] = second compound 0.0316 µM, first compound 0.0316 µM
[2] = second compound 0.0316 µM, first compound 0.1 µM
[3] = second compound 0.0316 µM, first compound 0.316 µM
[4] = second compound 0.0316 µM, first compound 1 µM
[5] = second compound 0.0316 µM, first compound 3.16 µM
[6] = second compound 0.0316 µM, first compound 10 µM
[7] = second compound 0.1 µM, first compound 0.0316 µM
[8] = second compound 0.1 µM, first compound 0.1 µM
[9] = second compound 0.1 µM, first compound 0.316 µM
[10] = second compound 0.1 µM, first compound 1 µM
[11] = second compound 0.1 µM, first compound 3.16 µM
[12] = second compound 0.1 µM, first compound 10 µM
[13] = second compound 0.316 µM, first compound 0.0316 µM
[14] = second compound 0.316 µM, first compound 0.1 µM
[15] = second compound 0.316 µM, first compound 0.316 µM
[16] = second compound 0.316 µM, first compound 1 µM
[17] = second compound 0.316 µM, first compound 3.16 µM
[18] = second compound 0.316 µM, first compound 10 µM
[19] = second compound 1 µM, first compound 0.0316 µM
[20] = second compound 1 µM, first compound 0.1 µM
[21] = second compound 1 µM, first compound 0.316 µM
[22] = second compound 1 µM, first compound 1 µM
[23] = second compound 1 µM, first compound 3.16 µM
[24] = second compound 1 µM, first compound 10 µM
[25] = second compound 3.16 µM, first compound 0.0316 µM
[26] = second compound 3.16 µM, first compound 0.1 µM
[27] = second compound 3.16 µM, first compound 0.316 µM
[28] = second compound 3.16 µM, first compound 1 µM
[29] = second compound 3.16 µM, first compound 3.16 µM
[30] = second compound 3.16 µM, first compound 10 µM
[31] = second compound 10 µM, first compound 0.0316 µM
[32] = second compound 10 µM, first compound 0.1 µM
[33] = second compound 10 µM, first compound 0.316 µM
[34] = second compound 10 µM, first compound 1 µM
[35] = second compound 10 µM, first compound 3.16 µM
[36] = second compound 10 µM, first compound 10 µM
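Note: spheroids exposed to compounds for seven days.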
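Throughout, for viability, T/C: 100% = DMSO vehicle control viability.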

For `O=C(c1cc(Cc2n[nH]c(=O)c3ccccc23)ccc1F)N1CCN(C(=O)C2CC2)CC1` + Nc1ccc(C#CCN(C(=O)Cc2ncc(C(F)(F)F)cc2C(F)(F)F)c2ccc(F)cc2)nn1, the IC50 (second compound 0.0316 µM) was > 10 µM, the IC50 (second compound 0.1 µM) was > 10 µM and the IC50 (second compound 0.316 µM) was > 10 µM. The IC50 (second compound 1 µM) was > 10 µM, the IC50 (second compound 3.16 µM) was > 10 µM and the IC50 (second compound 10 µM) was > 10 µM. The viability, T/C [1] was 114%, the viability, T/C [2] was 104% and the viability, T/C [3] was 101%. It also gave a viability, T/C [4] of 105%, a viability, T/C [5] of 121% and a viability, T/C [6] of 105%. It also gave a viability, T/C [7] of 112%, a viability, T/C [8] of 123% and a viability, T/C [9] of 98.6%. For the same compound, the viability, T/C [10] was 102%, the viability, T/C [11] was 117% and the viability, T/C [12] was 118%. For the same compound, the viability, T/C [13] was 113%, the viability, T/C [14] was 97.1% and the viability, T/C [15] was 104%. It also gave a viability, T/C [16] of 95.2%, a viability, T/C [17] of 109% and a viability, T/C [18] of 94.8%. The viability, T/C [19] was 119%, the viability, T/C [20] was 103% and the viability, T/C [21] was 105%. It also gave a viability, T/C [22] of 110%, a viability, T/C [23] of 112% and a viability, T/C [24] of 109%. For the same compound, the viability, T/C [25] was 111%, the viability, T/C [26] was 109% and the viability, T/C [27] was 111%. For the same compound, the viability, T/C [28] was 106%, the viability, T/C [29] was 118% and the viability, T/C [30] was 115%. The viability, T/C [31] was 122%, the viability, T/C [32] was 106% and the viability, T/C [33] was 130%. For the same compound, the viability, T/C [34] was 121%, the viability, T/C [35] was 129% and the viability, T/C [36] was 127%.

For `CC(C)n1c(=O)n(C)c2cnc3cc(F)c(-c4ccc(OCCCN5CCCCC5)nc4)cc3c21` + Cc1cccc(N(C)C(=O)C2C(O)CCN2c2nc(C)cc(C(F)(F)F)c2C#N)c1, the IC50 (second compound 0.0316 µM) was > 10 µM, the IC50 (second compound 0.1 µM) was > 10 µM and the IC50 (second compound 0.316 µM) was > 10 µM. For the same compound, the IC50 (second compound 1 µM) was > 10 µM, the IC50 (second compound 3.16 µM) was > 10 µM and the IC50 (second compound 10 µM) was > 10 µM. It also gave a viability, T/C [1] of 97.8%, a viability, T/C [2] of 129% and a viability, T/C [3] of 99%. It also gave a viability, T/C [4] of 114%, a viability, T/C [5] of 109% and a viability, T/C [6] of 88.3%. The viability, T/C [7] was 95.2%, the viability, T/C [8] was 123% and the viability, T/C [9] was 98.2%. For the same compound, the viability, T/C [10] was 97.5%, the viability, T/C [11] was 129% and the viability, T/C [12] was 84.8%. The viability, T/C [13] was 99.6%, the viability, T/C [14] was 92.3% and the viability, T/C [15] was 96%. It also gave a viability, T/C [16] of 89.5%, a viability, T/C [17] of 99.1% and a viability, T/C [18] of 73.8%. The viability, T/C [19] was 105%, the viability, T/C [20] was 99.8% and the viability, T/C [21] was 97.7%. The viability, T/C [22] was 105%, the viability, T/C [23] was 106% and the viability, T/C [24] was 93.2%. It also gave a viability, T/C [25] of 81.5%, a viability, T/C [26] of 102% and a viability, T/C [27] of 96.4%. The viability, T/C [28] was 98.9%, the viability, T/C [29] was 97.1% and the viability, T/C [30] was 92.7%. It also gave a viability, T/C [31] of 93.2%, a viability, T/C [32] of 87.3% and a viability, T/C [33] of 110%. The viability, T/C [34] was 81.9%, the viability, T/C [35] was 120% and the viability, T/C [36] was 82.1%.

In the case of `C=CC(=O)N1CCN(c2nc(=O)n(-c3c(C)ccnc3C(C)C)c3nc(-c4c(O)cccc4F)c(F)cc23)C(C)C1` (stereo unspecified) + Cc1cccc(N(C)C(=O)C2C(O)CCN2c2nc(C)cc(C(F)(F)F)c2C#N)c1, the IC50 (second compound 0.0316 µM) is reported as > 10 µM, the IC50 (second compound 0.1 µM) is reported as > 10 µM and the IC50 (second compound 0.316 µM) is reported as > 10 µM. The IC50 (second compound 1 µM) was > 10 µM, the IC50 (second compound 3.16 µM) was > 10 µM and the IC50 (second compound 10 µM) was > 10 µM. The viability, T/C [1] was 94.8%, the viability, T/C [2] was 84.6% and the viability, T/C [3] was 119%. It also gave a viability, T/C [4] of 89.3%, a viability, T/C [5] of 97.3% and a viability, T/C [6] of 80.5%. The viability, T/C [7] was 102%, the viability, T/C [8] was 108% and the viability, T/C [9] was 93.4%. For the same compound, the viability, T/C [10] was 83.5%, the viability, T/C [11] was 90.4% and the viability, T/C [12] was 88.7%. The viability, T/C [13] was 91.2%, the viability, T/C [14] was 106% and the viability, T/C [15] was 106%. The viability, T/C [16] was 89.4%, the viability, T/C [17] was 74.1% and the viability, T/C [18] was 79.3%. It also gave a viability, T/C [19] of 79.2%, a viability, T/C [20] of 92.7% and a viability, T/C [21] of 89%. It also gave a viability, T/C [22] of 80.8%, a viability, T/C [23] of 85.7% and a viability, T/C [24] of 76.6%. It also gave a viability, T/C [25] of 88.5%, a viability, T/C [26] of 99% and a viability, T/C [27] of 71.9%. The viability, T/C [28] was 88.5%, the viability, T/C [29] was 84% and the viability, T/C [30] was 89.4%. For the same compound, the viability, T/C [31] was 76.7%, the viability, T/C [32] was 80.8% and the viability, T/C [33] was 89.7%. For the same compound, the viability, T/C [34] was 86.8%, the viability, T/C [35] was 85.8% and the viability, T/C [36] was 70.7%.
